Where two headings read alike, the source gives them in different places.

For 21 compounds, IC50 results are on record in US10696707B2, “Polyene macrolide derivative” (Shionogi & Co., Ltd., priority 2014, dated 2020).

For this assay, the system named is red blood cells (5% RBC suspension). Kind of assay: Test Example 2-1: in vitro hemolytic activity test (upper limit 50, 80, 100 or 200 μmol/L). It counts as cell-based. The note with it: 5% RBC suspension, 37° C., one hour, read-out: hemolysis IC50. As for the experimental part:
Nephrotoxic potentials of the compounds of the present invention except the compounds whose X is —N(R^F)—CO—X^1 and X^1 is the group represented by formula (III) and T is —N(R^a5)— were investigated by in vitro hemolytic activity test under the condition, in that, the upper limit was 50 μmol/L, 80 μmol/L, 100 μmol/L, or 200 μmol/L as the required concentration to 50% of hemolysis (IC50).
Defibrinated sterile blood was centrifuged at 700×g for 3 minutes and, and the supernatant was removed for 100% of red blood cells. After the cleaning with physiological saline, the washed blood cells was suspended in the medium (Earle's balanced salt sodium, bicarbonate, 0.1 g/L L-glutamine without phenol red), and was diluted by 5% (5% RBC suspension).
The washed blood was diluted by 5% in water for injection (solution of complete hemolysis), and was used as the indication of optical density for complete hemolysis.
The compounds of the present invention solution in DMSO (several and doubling dilutions starting from 2.5 mmol/L, 4 mmol/L, 5 mmol/L, or 10 mmol/L), DMSO as the negative control, and Amphotericin B as the positive control were used, and each 5 μL of these was added in to a well of V-form 96 well type microplate.
Finally, the maximum concentration of the compounds of the present invention solution in DMSO was 50 μmol/L, 80 μmol/L, 100 μmol/L, or 200 μmol/L by adding 245 μL of the medium or 5% RBC suspension into the well.
Two hundred fifty μL of the solution of complete hemolysis was added into another well and the microplate was incubated at 37° C. in 5% of CO2 concentration for an hour.
After the incubation, each 100 μL of supernatants in wells was collected by centrifugation of the microplate at 300×g for 5 minutes and was located on a well of flat-form 96 well type microplate. An absorbance of each supernatant was measured at wavelength of 540 nm.
Percent hemolysis was calculated by using the followed equation. The required concentration to 50% of hemolysis (IC50) was calculated based on the percent hemolysis. […] Hemolysis (%)=(CR−VM)×100÷(VL−VR) Where:
CR: Absorbance of 5% RBC suspension incubated with the compounds of the present invention solution in DMSO
VM: Absorbance of medium incubated with the compounds of the present invention solution in DMSO
VL: Absorbance of solution of complete hemolysis
VR: Absorbance of 5% RBC suspension incubated with DMSO
The “hemolysis method” in the table means any tests the upper concentration of above IC50 are 50 μmol/L, 80 μmol/L, 100 μmol/L or 200 μmol/L. The “>50”, “>80”, “>100” or “>200” in the table means above IC50 value exceeded the each upper concentration.

Where [1] appears, read: hemolysis method 80 (upper concentration 80 μmol/L).
[2] abbreviates: hemolysis method 50 (upper concentration 50 μmol/L).
[3] abbreviates: hemolysis method 100 (upper concentration 100 μmol/L).
The mark [4] stands for this setting: Erythrocyte, 1 h, hemolysis method 50 (upper concentration 50 μmol/L).

`C[C@@H]1[C@H](O)[C@@H](C)/C=C/C=C/C=C/C=C/C=C/C=C/C=C/[C@H](O[C@@H]2O[C@H](C)[C@@H](O)[C@H](N)[C@@H]2O)C[C@@H]2O[C@](O)(C[C@@H](O)C[C@@H](O)[C@H](O)CC[C@@H](O)C[C@@H](O)CC(=O)O[C@H]1C)C[C@H](O)[C@H]2NC(=O)NCC[N+](C)(C)C` [I-53]: the concentration for half-maximal inhibition (IC50) under setting [1] was > 80 µM. With `C[C@@H]1[C@H](O)[C@@H](C)/C=C/C=C/C=C/C=C/C=C/C=C/C=C/[C@H](O[C@@H]2O[C@H](C)[C@@H](O)[C@H](N)[C@@H]2O)C[C@@H]2O[C@](O)(C[C@@H](O)C[C@@H](O)[C@H](O)CC[C@@H](O)C[C@@H](O)CC(=O)O[C@H]1C)C[C@H](O)[C@H]2NC(=O)N1CCC(N(C)C)CC1` [I-54], under setting [1], the IC50 is > 80 µM.

With `COC(=O)CCCNC(=O)N[C@H]1[C@@H]2C[C@@H](O[C@@H]3O[C@H](C)[C@@H](O)[C@H](N)[C@@H]3O)/C=C/C=C/C=C/C=C/C=C/C=C/C=C/[C@H](C)[C@@H](O)[C@@H](C)[C@H](C)OC(=O)C[C@H](O)C[C@H](O)CC[C@@H](O)[C@H](O)C[C@H](O)C[C@](O)(C[C@@H]1O)O2` [I-55], under setting [2], the half-maximal inhibitory concentration (IC50) was > 50 µM. Turning to `C[C@@H]1[C@H](O)[C@@H](C)/C=C/C=C/C=C/C=C/C=C/C=C/C=C/[C@H](O[C@@H]2O[C@H](C)[C@@H](O)[C@H](N)[C@@H]2O)C[C@@H]2O[C@](O)(C[C@@H](O)C[C@@H](O)[C@H](O)CC[C@@H](O)C[C@@H](O)CC(=O)O[C@H]1C)C[C@H](O)[C@H]2NC(=O)NC1CN(C)C1` [I-62], under setting [3], the IC50 was determined as 50 µM.

Take `C[C@@H]1[C@H](O)[C@@H](C)/C=C/C=C/C=C/C=C/C=C/C=C/C=C/[C@H](O[C@@H]2O[C@H](C)[C@@H](O)[C@H](N)[C@@H]2O)C[C@@H]2O[C@](O)(C[C@@H](O)C[C@@H](O)[C@H](O)CC[C@@H](O)C[C@@H](O)CC(=O)O[C@H]1C)C[C@H](O)[C@H]2NC(=O)NCCC(N)=O` [I-81]: under setting [2], the IC50 is > 50 µM.

Regarding `C[C@@H]1[C@H](O)[C@@H](C)/C=C/C=C/C=C/C=C/C=C/C=C/C=C/[C@H](O[C@@H]2O[C@H](C)[C@@H](O)[C@H](N)[C@@H]2O)C[C@@H]2O[C@](O)(C[C@@H](O)C[C@@H](O)[C@H](O)CC[C@@H](O)C[C@@H](O)CC(=O)O[C@H]1C)C[C@H](O)[C@H]2NC(=O)NCCNC(N)=O` [I-93], under setting [2], the IC50 was > 50 µM.

As for `C[C@@H]1[C@H](O)[C@@H](C)/C=C/C=C/C=C/C=C/C=C/C=C/C=C/[C@H](O[C@@H]2O[C@H](C)[C@@H](O)[C@H](N)[C@@H]2O)C[C@@H]2O[C@](O)(C[C@@H](O)C[C@@H](O)[C@H](O)CC[C@@H](O)C[C@@H](O)CC(=O)O[C@H]1C)C[C@H](O)[C@H]2NC(=O)NCC[C@H](O)CO` [I-146], the concentration for half-maximal inhibition (IC50) under setting [2] was > 50 µM. For the compound `CC1C=CC=CC=CC=CC=CC=CC=CC(OC2OC(C)C(O)C(N)C2O)CC2OC(O)(CC(O)CC(O)C(O)CCC(O)CC(O)CC(=O)OC(C)C(C)C1O)CC(O)C2NC(=O)NC1CCCC1O` (stereo not drawn) [I-207], the IC50 under setting [3] was > 100 µM. For the compound `C[C@@H]1[C@H](O)[C@@H](C)/C=C/C=C/C=C/C=C/C=C/C=C/C=C/[C@H](O[C@@H]2O[C@H](C)[C@@H](O)[C@H](N)[C@@H]2O)C[C@@H]2O[C@](O)(C[C@@H](O)C[C@@H](O)[C@H](O)CC[C@@H](O)C[C@@H](O)CC(=O)O[C@H]1C)C[C@H](O)[C@H]2NC(=O)N(N)CCO` [I-212], under setting [3], the IC50 is > 100 µM. For `C[C@@H]1[C@H](O)[C@@H](C)/C=C/C=C/C=C/C=C/C=C/C=C/C=C/[C@H](O[C@@H]2O[C@H](C)[C@@H](O)[C@H](N)[C@@H]2O)C[C@@H]2O[C@](O)(C[C@@H](O)C[C@@H](O)[C@H](O)CC[C@@H](O)C[C@@H](O)CC(=O)O[C@H]1C)C[C@H](O)[C@H]2NC(=O)NC(C)(CO)CO` [I-213], under setting [3], the IC50 is > 100 µM. Consider `C[C@@H]1[C@H](O)[C@@H](C)/C=C/C=C/C=C/C=C/C=C/C=C/C=C/[C@H](O[C@@H]2O[C@H](C)[C@@H](O)[C@H](N)[C@@H]2O)C[C@@H]2O[C@](O)(C[C@@H](O)C[C@@H](O)[C@H](O)CC[C@@H](O)C[C@@H](O)CC(=O)O[C@H]1C)C[C@H](O)[C@H]2NC(=O)N1CC(NC[C@H](O)CO)C1` [I-226], for which the IC50 under setting [2] is > 50 µM. Take `C[C@@H]1[C@H](O)[C@@H](C)/C=C/C=C/C=C/C=C/C=C/C=C/C=C/[C@H](O[C@@H]2O[C@H](C)[C@@H](O)[C@H](N)[C@@H]2O)C[C@@H]2O[C@](O)(C[C@@H](O)C[C@@H](O)[C@H](O)CC[C@@H](O)C[C@@H](O)CC(=O)O[C@H]1C)C[C@H](O)[C@H]2NC(=O)NC1CCS(=O)(=O)C1` (stereo partly drawn) [I-231]: under setting [2], the half-maximal inhibitory concentration (IC50) was > 50 µM. Turning to `C[C@@H]1[C@H](O)[C@@H](C)/C=C/C=C/C=C/C=C/C=C/C=C/C=C/[C@H](O[C@@H]2O[C@H](C)[C@@H](O)[C@H](N)[C@@H]2O)C[C@@H]2O[C@](O)(C[C@@H](O)C[C@@H](O)[C@H](O)CC[C@@H](O)C[C@@H](O)CC(=O)O[C@H]1C)C[C@H](O)[C@H]2NC(=O)NC(CNS(N)(=O)=O)CN(C)C` (stereo partly drawn) [I-234], under setting [2], the IC50 was > 50 µM. On the same count and under the same terms, the value for `C[C@@H]1[C@H](O)[C@@H](C)/C=C/C=C/C=C/C=C/C=C/C=C/C=C/[C@H](O[C@@H]2O[C@H](C)[C@@H](O)[C@H](N)[C@@H]2O)C[C@@H]2O[C@](O)(C[C@@H](O)C[C@@H](O)[C@H](O)CC[C@@H](O)C[C@@H](O)CC(=O)O[C@H]1C)C[C@H](O)[C@H]2NC(=O)NCCOCCS(C)(=O)=O` [I-241] was > 50 µM. Same read-out and setting: the result for `C[C@@H]1[C@H](O)[C@@H](C)/C=C/C=C/C=C/C=C/C=C/C=C/C=C/[C@H](O[C@@H]2O[C@H](C)[C@@H](O)[C@H](N)[C@@H]2O)C[C@@H]2O[C@](O)(C[C@@H](O)C[C@@H](O)[C@H](O)CC[C@@H](O)C[C@@H](O)CC(=O)O[C@H]1C)C[C@H](O)[C@H]2NC(=O)NC(CCO)C(=O)O` (stereo partly drawn) [I-249] reads > 50 µM.

As for `C[C@@H]1[C@H](O)[C@@H](C)/C=C/C=C/C=C/C=C/C=C/C=C/C=C/[C@H](O[C@@H]2O[C@H](C)[C@@H](O)[C@H](N)[C@@H]2O)C[C@@H]2O[C@](O)(C[C@@H](O)C[C@@H](O)[C@H](O)CC[C@@H](O)C[C@@H](O)CC(=O)O[C@H]1C)C[C@H](O)[C@H]2NC(=O)NC1(C(=O)O)COC1` [I-252], under setting [4], the IC50 was > 50 µM. `C[C@@H]1[C@H](O)[C@@H](C)/C=C/C=C/C=C/C=C/C=C/C=C/C=C/[C@H](O[C@@H]2O[C@H](C)[C@@H](O)[C@H](N)[C@@H]2O)C[C@@H]2O[C@](O)(C[C@@H](O)C[C@@H](O)[C@H](O)CC[C@@H](O)C[C@@H](O)CC(=O)O[C@H]1C)C[C@H](O)[C@H]2NC(=O)NC(CO[C@H]1O[C@H](CO)[C@@H](O)[C@H](O)[C@@H]1O)CO[C@H]1O[C@H](CO)[C@@H](O)[C@H](O)[C@@H]1O` [I-254]: under setting [4], the IC50 was > 50 µM. Take `C[C@@H]1[C@H](O)[C@@H](C)/C=C/C=C/C=C/C=C/C=C/C=C/C=C/[C@H](O[C@@H]2O[C@H](C)[C@@H](O)[C@H](N)[C@@H]2O)C[C@@H]2O[C@](O)(C[C@@H](O)C[C@@H](O)[C@H](O)CC[C@@H](O)C[C@@H](O)CC(=O)O[C@H]1C)C[C@H](O)[C@H]2NC(=O)NOCC(CO)CO` [I-255]: the IC50 under setting [2] is > 50 µM. Turning to `C[C@@H]1[C@H](O)[C@@H](C)/C=C/C=C/C=C/C=C/C=C/C=C/C=C/[C@H](O[C@@H]2O[C@H](C)[C@@H](O)[C@H](N)[C@@H]2O)C[C@@H]2O[C@](O)(C[C@@H](O)C[C@@H](O)[C@H](O)CC[C@@H](O)C[C@@H](O)CC(=O)O[C@H]1C)C[C@H](O)[C@H]2NC(=O)NC1(C#N)COC1` [I-258], the half-inhibitory concentration (IC50) under setting [2] was > 50 µM.

With `CCN(O)C(=O)N[C@H]1[C@@H]2C[C@@H](O[C@@H]3O[C@H](C)[C@@H](O)[C@H](N)[C@@H]3O)/C=C/C=C/C=C/C=C/C=C/C=C/C=C/[C@H](C)[C@@H](O)[C@@H](C)[C@H](C)OC(=O)C[C@H](O)C[C@H](O)CC[C@@H](O)[C@H](O)C[C@H](O)C[C@](O)(C[C@@H]1O)O2` [I-279], the concentration for half-maximal inhibition (IC50) under setting [2] is > 50 µM. As for `CCCN(O)C(=O)N[C@H]1[C@@H]2C[C@@H](O[C@@H]3O[C@H](C)[C@@H](O)[C@H](N)[C@@H]3O)/C=C/C=C/C=C/C=C/C=C/C=C/C=C/[C@H](C)[C@@H](O)[C@@H](C)[C@H](C)OC(=O)C[C@H](O)C[C@H](O)CC[C@@H](O)[C@H](O)C[C@H](O)C[C@](O)(C[C@@H]1O)O2` [I-280], under setting [2], the half-inhibitory concentration (IC50) is > 50 µM.

For orientation: IC50 means the concentration at which inhibition is half-maximal.
